Source: US11185514B2, “Aqueous solution comprising a polyphenol” (OPTERION Health AG, priority 2015, dated 2021)
≈ marks a conversion by molar mass, not a printed value.

Key:
[1] = Solubility of resveratrol in water / aqueous solution after stirring at room temperature (general statements); format: physicochemical
Description: (§1) Concentrations of stilbenoid in the present invention are measured after 1 hour stirring at room temperature, which is preferably 20-23° C., more preferably 22°. So, stilbenoid concentrations correspond to measured solubility after 1 hour stirring at room temperature. Concentration is measured in aqueous solution, comprising the stilbenoid and the at least one saccharide. If not specifically indicated, or if not specifically indicated otherwise, the time of stirring is one hour. In some cases, other stirring times are indicated, such as 12 hours. […] With increasing concentrations of saccharides, less variations were observed. This is highly beneficial for pharmacological formulations.
(§2) Solubility measurements after 1 hour stirring at RT generated some variability in-between measurement series, which might be due to low temperature variations, back-ground measurements and experimental imprecisions. […] The here calculated factors of increase of solubility are therefore to be considered as conservative.

[2] = cited from earlier work
[3] = Solubility after one hour stirring at RT as a function of glucose or icodextrin concentration in salt solution at pH 3 or pH 7 (Example 1); format: physicochemical; details: 0% glucose or icodextrin
Description: as §1, with “formulations. For analysis R and P and their impurities were separated by a C-18 column with a gradient system and UV-detection at 306 nm. Solubility and stability of Resveratrol and […] after one hour stirring at RT, as a function of glucose or icodextrin concentration in a solution, containing 5.4 g/L NaCl, 4.5 g/L NaLactate, 0.275 g/L CaCl2, and 0.051 g/L MgCl2, buffered at pH 3 or pH 7. Solubility was measured after one hour stirring at room temperature, in presence of excess solute, followed by filtering.” for “formulations.”

[4] = Solubility after one hour stirring at RT as a function of saccharide concentration in H2O (Examples 5-9); format: physicochemical; details: 24% N-acetylglucosamin in H2O, 1 hour stirring RT
Description: as §2
Solubility of Resveratrol after one hour stirring at RT, as a function of the concentration of Maltose, Maltotriose, Isomaltotriose, and Maltotetraose in H2O. Solubility was measured after one hour stirring at room temperature, in presence of excess solute, followed by filtering. […] Concentration of Maltose and maltotriose of 7.5% increased solubility of the stilbenoid resveratrol by a factor higher than 6 and 3 respectively.
Solubility of Resveratrol after one hour stirring at RT, as a function of the concentration of Maltodextrin DE 16-19 (DE═dextrose equivalents), Maltodextrin DE 4-7 or Icodextrin in H2O. Solubility was measured after one hour stirring at room temperature, in presence of excess solute, followed by filtering.
Solubility of Resveratrol after one hour stirring at RT, as a function of the concentration of Dextran 2.5-4 kD, Dextran 10 kD, Glycogen 100 kD, and Pullulan 100-200 kD, in H2O. Solubility was measured after one hour stirring at room temperature, in presence of excess solute, followed by filtering. […]

[5] = Solubility in commercial peritoneal dialysis solutions (Medium B, E, F), 5 minutes to 12 hours stirring (Example 2); format: physicochemical; details: for P in Medium B found: Medium B (106.5 g/L anhydrous glucose, pH 3.5); for P in Medium B found / P in Medium E found / P in Medium F found: room temperature; for P in Medium E found: Medium E (75 g/L Icodextrin, pH 3); for P in Medium F found: Medium F (30 g/L anhydrous glucose, pH 3)
Description: (§3) Solubility studies were carried out commercially available peritoneal dialysis solutions Fresenius Safestay® 1.5% glucose, Baxter Physioneal® 3.86% glucose and Baxter Extraneal® (7.5% icodextrin), precisely in acidic glucose solutions, such as applied in two compartiment peritoneal dialysis applications Stay Safe® and Physioneal®, as well as in Extraneal® Solution that had previously been acidified to pH3. Medium B (117.14 g/L glucose monohydrate (equivalent to 106.5 g/L anhydrous glucose), 0.507 g/L Calcium chloride dihydrate, 0.140 g/L Magnesium chloride hexahydrate, measured pH 3.5), Medium E (75 g/L Icodextrin, 5.35 g/L Sodium Chloride, 4.48 g/L Sodium Lactate, 257 mg/L Calcium Chloride USP, 50.8 mg/L Magnesium Chloride USP, adjusted to pH 3 in our lab), and Medium F (30 g/L anhydrous glucose, 11.279 g/L Sodium chloride, 0.3675 g/L Calcium chloride dihydrate, 0.2033 g/L Magnesium chloride hexahydrate, measured pH 3).
Solubility was measured after 5 minutes to 12 hours stirring at room temperature, in presence of excess solute, followed by filtering.
Solubility was measured after one hour or 12 hours stirring at room temperature, in presence of excess solute, followed by filtering.

[6] = Stability after one hour stirring at RT as a function of glucose or icodextrin concentration in salt solution at pH 3 or pH 7 (Example 1); format: physicochemical; details: pH of 3 to 3.5
Description: For analysis R and P and their impurities were separated by a C-18 column with a gradient system and UV-detection at 306 nm. Solubility and stability of Resveratrol and […] after one hour stirring at RT, as a function of glucose or icodextrin concentration in a solution, containing 5.4 g/L NaCl, 4.5 g/L NaLactate, 0.275 g/L CaCl2, and 0.051 g/L MgCl2, buffered at pH 3 or pH 7. Solubility was measured after one hour stirring at room temperature, in presence of excess solute, followed by filtering.

[7] = Stability of Resveratrol in commercial dialysis solutions during autoclavation (Example 4); format: physicochemical
Description: For analysis R and P and their impurities were separated by a C-18 column with a gradient system and UV-detection at 306 nm.
as §3
Stability of Resveratrol in commercial dialysis solutions during autoclavation. Experiment was carried out in previous defined media B, E and F. 25 mg of resveratrol were sonicated in each medium and 0.45 μm filtered to give clear solutions. Obtained solutions were autoclaved for 30 min at 121° C.

| solubility at 1 h ([1]; 22 °C, thermodynamic from solid, after 1 hour stirring, distilled water, variation between measurements) [µg/mL] | concentration of resveratrol after 12 hours ([1]; 12 hours stirring) | effect of pH3 versus pH7 on solubility [3] | increase of concentration [4] [times] | solubility relative to referred absolute solubility (approximately 30 mg/L) ([5]; 7.5% Icodextrin (Medium E), 12 hours stirring) | stabilization by pH [6] | stability on heat sterilization ([7]; pH 3 adjusted Extraneal solution, heat sterilization) | stability during standard heat-sterilization ([7]; saccharide containing dialysis solutions at pH3, specifically in presence of 7.5% Icodextrin) | P in Medium B found ([5]; stirring time 60 min) [mg/L] | P in Medium B found ([5]; stirring time 12 h) [mg/L] | P in Medium E found ([5]; stirring time 60 min) [mg/L] | P in Medium E found ([5]; stirring time 12 h) [mg/L] | P in Medium F found ([5]; stirring time 60 min) [mg/L] | P in Medium F found ([5]; stirring time 12 h) [mg/L] | stability of solubilized piceid over stirring time ([5]; commercial dialysis solutions, between 1 and 12 hours stirring) | Compound | referred absolute solubility of Resveratrol in aqueous solution [2] |
| --- | --- | --- | --- | --- | --- | --- | --- | --- | --- | --- | --- | --- | --- | --- | --- | --- |
| 1 to 6.5 (≈ 4.38 to 28.5 µM) | above 24 mg/L | slightly increases solubility | 12 | about 4 times | significantly stabilize | without degradation | remarkably high |  |  |  |  |  |  |  | Oc1ccc(/C=C/c2cc(O)cc(O)c2)cc1 [Resveratrol, trans-3,5,4′-trihydroxystilbene] | approximately 30 mg/L |
|  |  | slightly increases solubility |  |  | significantly stabilize |  |  | 485.6 | 342.9 | 1585.5 | 1370.3 | 493.8 | 461.4 | stable between 1 and 12 hours | OC[C@H]1O[C@@H](Oc2cc(O)cc(/C=C/c3ccc(O)cc3)c2)[C@H](O)[C@@H](O)[C@@H]1O [Piceid, resveratrol-3-O-β-mono-D-glucoside] |  |
